Patent US20190233884A1 (University of Southern California, priority 2016, published 2019)

System: patients with refractory metastatic colorectal cancer (mCRC)
Assay: PFS, OS and disease control in the testing (validation) cohort of refractory mCRC patients receiving TAS-102 (n=129, Italy), by baseline characteristics, SNP genotype and toxicity
Type: in vivo, human
Conditions: for OS HR (95% CI)‡ / PFS HR (95% CI) ‡: multivariable; for Disease Control Rate: PD / Disease Control Rate: SD: patients, n (%); for Disease Control Rate PD / Disease Control Rate SD / Overall Survival Median, months (95% CI) / Progression-free Survival Median, months (95% CI) / Overall Survival HR (95% CI) multivariate / Overall Survival HR (95% CI) univariate / Progression-free Survival HR (95% CI) multivariate / Progression-free Survival HR (95% CI) univariate / OS / PFS: testing cohort
Procedure: All patients underwent the treatment in salvage-line setting. […]
(§1) Genomic DNA was extracted from peripheral whole blood in patients of all cohorts using the QIAmp Kit (Qiagen, Valencia, Calif., USA) according to the manufacturer's protocol (www.qiagen.com). The candidate SNPs were genotyped using PCR-based direct DNA sequence analysis by ABI 3100A Capillary Genetic Analyzer and Sequencing Scanner v1.0 (Applied Biosystems). Amplification of extracted DNA was carried out using both forward and reverse primers for each gene polymorphism as shown in Table 1. […] The investigators analyzing SNPs were blinded to the clinical data of the study patients.
The primary endpoint in this study was progression-free survival (PFS), and the secondary endpoints were overall survival (OS) and disease control rate (DCR). PFS was calculated from the date of starting treatment to the first observation of disease progression or death from any cause. If a patient had no disease progression or death, PFS was censored at the date of last follow up. OS was calculated from the date of starting treatment until the date of death from any cause or the date of the last follow-up, at which point OS was censored. The disease control rate (DCR) was defined as the proportion of patients who achieved a stable disease (SD) or […] according to RECISTv1.1. Chi-square test was used to examine the difference in baseline patient characteristics among the three cohorts. Allelic distribution of all SNPs by ethnicity for deviation from Hardy-Weinberg equilibrium and the allelic frequencies of SNPs were tested using the Chi-square tests with one degree of freedom. The associations between candidate SNPs and disease control, and toxicities were examined using contingency tables and Fisher's exact test. The associations of SNPs with PFS and OS were analysed using Kaplan-Meier curves and the log-rank test. Because the true mode of inheritance of candidate SNPs was not established yet, a codominant or dominant genetic model if appropriate was considered.
All patients underwent the treatment in salvage-line setting. […] In all patients, adverse events were graded according to the Common Terminology Criteria for Adverse Events, version 4.0. […]
as §1, with “tested” for “genotyped”, “Biosystems).” for “Biosystems). Amplification of extracted DNA was carried out using both forward and reverse primers for each gene polymorphism as shown in Table 1.”, “data.” for “data of the study patients.”
The primary endpoint in this study was progression-free survival (PFS), and the secondary endpoints were overall survival (OS) and disease control rate (DCR).

[1] = ATR rs2227928 A/A vs G/G, univariate
[2] = ATR rs2227928 Any A vs G/G, univariate
[3] = ATR rs2227928 G/A vs G/G, univariate
[4] = Pin1 rs2233678 G/C and C/C grouped together
[5] = Pin1 rs2233678 G/C and C/C grouped vs G/G
[6] = Pin1 rs2233678 G/C and C/C grouped vs G/G, univariate
[7] = Validation cohort, Neutropenia grade <3
[8] = Validation cohort, Neutropenia grade ≥3 vs <3, univariate
[9] = hENT1 + OCT2/MATE1 classification: Fair
[10] = hENT1 + OCT2/MATE1 classification: Good or Excellent
[11] = hENT1 + OCT2/MATE1 classification: Poor

Substance: Trifluridine/tipiracil [TAS-102]
- PFS median, months (95% CI) (ATR rs2227928 A/A): 2.4 months
- OS HR (95% CI)‡ (ATR rs2227928 A/A vs G/G): 1.32
- PFS HR (95% CI) ‡ (ATR rs2227928 A/A vs G/G): 1.03
- OS HR (95% CI)† [1]: 0.94
- PFS HR (95% CI) † [1]: 0.79
- Disease Control Rate: PD (ATR rs2227928 A/A): 14 (56%)
- Disease Control Rate: SD (ATR rs2227928 A/A): 11 (44%)
- OS median, months (95% CI) (ATR rs2227928 Any A): 5.5 months
- PFS median, months (95% CI) (ATR rs2227928 Any A): 2.0 months
- OS HR (95% CI)‡ (ATR rs2227928 Any A vs G/G): 1.35
- PFS HR (95% CI) ‡ (ATR rs2227928 Any A vs G/G): 1.33
- OS HR (95% CI)† [2]: 1.12
- PFS HR (95% CI) † [2]: 1.11
- Disease Control Rate: PD (ATR rs2227928 Any A): 64 (72%)
- Disease Control Rate: SD (ATR rs2227928 Any A): 25 (28%)
- OS median, months (95% CI) (ATR rs2227928 G/A): 5.4 months
- PFS median, months (95% CI) (ATR rs2227928 G/A): 2.0 months
- OS HR (95% CI)‡ (ATR rs2227928 G/A vs G/G): 1.36
- PFS HR (95% CI) ‡ (ATR rs2227928 G/A vs G/G): 1.45
- OS HR (95% CI)† [3]: 1.20
- PFS HR (95% CI) † [3]: 1.26
- Disease Control Rate: PD (ATR rs2227928 G/A): 50 (78%)
- Disease Control Rate: SD (ATR rs2227928 G/A): 14 (22%)
- PFS median, months (95% CI) (ATR rs2227928 G/G): 2.1 months
- Disease Control Rate: PD (ATR rs2227928 G/G): 27 (69%)
- Disease Control Rate: SD (ATR rs2227928 G/G): 12 (31%)
- OS median, months (95% CI) [4]: 5.4 months
- PFS median, months (95% CI) [4]: 2.0 months
- Disease Control Rate: PD [4]: 26 (70%)
- Disease Control Rate: SD [4]: 11 (30%)
- OS HR (95% CI)‡ [5]: 0.97
- PFS HR (95% CI) ‡ [5]: 1.18
- OS HR (95% CI)† [6]: 0.91
- PFS HR (95% CI) † [6]: 1.00
- OS median, months (95% CI) (Pin1 rs2233678 G/G): 5.8 months
- PFS median, months (95% CI) (Pin1 rs2233678 G/G): 2.0 months
- Disease Control Rate: PD (Pin1 rs2233678 G/G): 65 (71%)
- Disease Control Rate: SD (Pin1 rs2233678 G/G): 26 (29%)
- OS median, months (95% CI) [7]: 3.7 (3.3, 5.1) months
- PFS median, months (95% CI) [7]: 1.9 (1.7, 1.9) months
- PFS median, months (95% CI) (Validation cohort, Neutropenia grade ≥3): 2.3 (2.0, 3.7) months
- OS HR (95% CI) [8]: 0.21 (0.10, 0.44)
- PFS HR (95% CI) [8]: 0.50 (0.32, 0.77)
- Disease Control Rate PD (MATE1_OCT019 Good): 63 (70%)
- Disease Control Rate SD (MATE1_OCT019 Good): 27 (30%)
- Overall Survival Median, months (95% CI) (MATE1_OCT019 Good): 5.4 (4.1, 9.0+) months
- Progression-free Survival Median, months (95% CI) (MATE1_OCT019 Good): 2.0 (1.9, 2.3) months
- Overall Survival HR (95% CI) multivariate (MATE1_OCT019 Good vs Poor): 1.12 (0.59, 2.10)
- Overall Survival HR (95% CI) univariate (MATE1_OCT019 Good vs Poor): 1.18 (0.64, 2.17)
- Progression-free Survival HR (95% CI) multivariate (MATE1_OCT019 Good vs Poor): 0.91 (0.59, 1.42)
- Progression-free Survival HR (95% CI) univariate (MATE1_OCT019 Good vs Poor): 0.94 (0.62, 1.43)
- Disease Control Rate PD (MATE1_OCT019 Poor): 28 (74%)
- Disease Control Rate SD (MATE1_OCT019 Poor): 10 (26%)
- Progression-free Survival Median, months (95% CI) (MATE1_OCT019 Poor): 2.0 (1.8, 2.1) months
- Disease Control Rate PD (MATE1 rs2289659 A/A): 20 (74%)
- Disease Control Rate SD (MATE1 rs2289659 A/A): 7 (26%)
- Progression-free Survival Median, months (95% CI) (MATE1 rs2289659 A/A): 2.0 (1.7, 2.3) months
- Overall Survival HR (95% CI) multivariate (MATE1 rs2289659 A/A vs G/G): 1.42 (0.61, 3.32)
- Overall Survival HR (95% CI) univariate (MATE1 rs2289659 A/A vs G/G): 1.13 (0.50, 2.58)
- Progression-free Survival HR (95% CI) multivariate (MATE1 rs2289659 A/A vs G/G): 1.11 (0.63, 1.96)
- Progression-free Survival HR (95% CI) univariate (MATE1 rs2289659 A/A vs G/G): 1.01 (0.58, 1.74)
- Disease Control Rate PD (MATE1 rs2289659 Any A): 64 (70%)
- Disease Control Rate SD (MATE1 rs2289659 Any A): 27 (30%)
- Overall Survival Median, months (95% CI) (MATE1 rs2289659 Any A): 5.3 (3.9, 8.8+) months
- Progression-free Survival Median, months (95% CI) (MATE1 rs2289659 Any A): 2.0 (1.9, 2.1) months
- Overall Survival HR (95% CI) multivariate (MATE1 rs2289659 Any A vs G/G): 1.60 (0.85, 3.04)
- Overall Survival HR (95% CI) univariate (MATE1 rs2289659 Any A vs G/G): 1.42 (0.76, 2.64)
- Progression-free Survival HR (95% CI) multivariate (MATE1 rs2289659 Any A vs G/G): 1.14 (0.74, 1.75)
- Progression-free Survival HR (95% CI) univariate (MATE1 rs2289659 Any A vs G/G): 1.03 (0.68, 1.58)
- Disease Control Rate PD (MATE1 rs2289659 G/A): 44 (69%)
- Disease Control Rate SD (MATE1 rs2289659 G/A): 20 (31%)
- Overall Survival Median, months (95% CI) (MATE1 rs2289659 G/A): 4.6 (3.7, 8.8+) months
- Progression-free Survival Median, months (95% CI) (MATE1 rs2289659 G/A): 2.0 (1.8, 2.3) months
- Overall Survival HR (95% CI) multivariate (MATE1 rs2289659 G/A vs G/G): 1.67 (0.56, 3.25)
- Overall Survival HR (95% CI) univariate (MATE1 rs2289659 G/A vs G/G): 1.55 (0.81, 2.96)
- Progression-free Survival HR (95% CI) multivariate (MATE1 rs2289659 G/A vs G/G): 1.15 (0.73, 1.53)
- Progression-free Survival HR (95% CI) univariate (MATE1 rs2289659 G/A vs G/G): 1.04 (0.66, 1.64)
- Disease Control Rate PD (MATE1 rs2289659 G/G): 27 (73%)
- Disease Control Rate SD (MATE1 rs2289659 G/G): 10 (27%)
- Overall Survival Median, months (95% CI) (MATE1 rs2289659 G/G): 9.0 (4.4, 9.0+) months
- Progression-free Survival Median, months (95% CI) (MATE1 rs2289659 G/G): 1.9 (1.9, 2.4) months
- Disease Control Rate PD (OCT2 rs316019 C/A): 21 (68%)
- Disease Control Rate SD (OCT2 rs316019 C/A): 10 (32%)
- Overall Survival Median, months (95% CI) (OCT2 rs316019 C/A): 4.6 (3.6, 7.1+) months
- Progression-free Survival Median, months (95% CI) (OCT2 rs316019 C/A): 1.9 (1.7, 2.4) months
- Overall Survival HR (95% CI) multivariate (OCT2 rs316019 C/A vs C/C): 1.00 (0.53, 1.89)
- Overall Survival HR (95% CI) univariate (OCT2 rs316019 C/A vs C/C): 1.19 (0.64, 2.19)
- Progression-free Survival HR (95% CI) multivariate (OCT2 rs316019 C/A vs C/C): 1.28 (0.79, 2.07)
- Progression-free Survival HR (95% CI) univariate (OCT2 rs316019 C/A vs C/C): 1.12 (0.72, 1.76)
- Disease Control Rate PD (OCT2 rs316019 C/C): 70 (72%)
- Disease Control Rate SD (OCT2 rs316019 C/C): 27 (28%)
- Overall Survival Median, months (95% CI) (OCT2 rs316019 C/C): 5.5 (4.7, 9.0+) months
- Progression-free Survival Median, months (95% CI) (OCT2 rs316019 C/C): 2.0 (1.9, 2.3) months
- Overall Survival HR (95% CI) multivariate (adjusted for age group, liver metastasis, ECOG performance status, previous anti-EGFR, OCT2 rs316000 A/G vs A/A): 0.66 (0.36, 1.23)
- Overall Survival HR (95% CI) multivariate (adjusted for age group, liver metastasis, ECOG performance status, previous anti-EGFR, OCT2 rs316000 Any G vs A/A): 0.66 (0.36, 1.21)
- Overall Survival HR (95% CI) multivariate (adjusted for age group, liver metastasis, ECOG performance status, previous anti-EGFR, OCT2 rs316000 G/G vs A/A): 0.64 (0.08, 4.91)
- Overall Survival HR (95% CI) univariate (genotype vs A/A, OCT2 rs316000 A/G vs A/A): 0.87 (0.48, 1.57)
- Overall Survival HR (95% CI) univariate (genotype vs A/A, OCT2 rs316000 Any G vs A/A): 0.83 (0.46, 1.47)
- Overall Survival HR (95% CI) univariate (genotype vs A/A, OCT2 rs316000 G/G vs A/A): 0.45 (0.06, 3.28)
- OS [9]: 4.0 months
- PFS [9]: 1.9 months
- OS [10]: 9.0 months
- PFS [10]: 2.1 months
- OS [11]: 3.6 months
- PFS [11]: 2.0 months
- Disease Control Rate PD (hENT1 rs750370 A/A): 36 (80%)
